Experiments:
cathepsin K = molecular target: T1, cathepsin K (Homo sapiens, UniProt P43235); assay: Determination of cathepsin K proteolytic catalytic activity / inhibition studies (progress curve method, Cbz-Phe-Arg-AMC); format: biochemical; conditions: human recombinant enzyme, 100 mM Na acetate pH 5.5, 20 μM substrate, 10% DMSO
T1 sequence (P43235 115-329): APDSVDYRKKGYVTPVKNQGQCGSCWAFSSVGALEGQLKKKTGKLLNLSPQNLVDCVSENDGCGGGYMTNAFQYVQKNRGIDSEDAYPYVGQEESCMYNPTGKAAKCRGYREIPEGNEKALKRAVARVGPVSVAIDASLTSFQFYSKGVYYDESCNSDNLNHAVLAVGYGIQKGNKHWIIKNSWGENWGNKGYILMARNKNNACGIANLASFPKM
Method: Determination of Cathepsin K Proteolytic Catalytic Activity
All assays for cathepsin K were carried out with human recombinant enzyme. Standard assay conditions for the determination of kinetic constants used a fluorogenic peptide substrate, typically Cbz-Phe-Arg-AMC, and were determined in 100 mM Na acetate at pH 5.5 containing 20 mM cysteine and 5 mM EDTA. Stock substrate solutions were prepared at concentrations of 10 or 20 mM in DMSO with 20 μM final substrate concentration in the assays. All assays contained 10% DMSO. […] All assays were conducted at ambient temperature. Product fluorescence (excitation at 360 nm; emission at 460 nm) was monitored with a Perceptive Biosystems Cytofluor II fluorescent plate reader. […]
Potential inhibitors were evaluated using the progress curve method. […] For those compounds whose progress curves were linear, apparent inhibition constants (Ki,app) were calculated according to equation 1 (Brandt et al., Biochemitsry, 1989, 28, 140): […]
[AMC]=vsst+(v0−vss)[[…]]/kobs (2) where [AMC] is the concentration of product formed over time t, v0 is the initial reaction velocity, and vss is the final steady state rate. Values for kobs were then analyzed as a linear function of inhibitor concentration to generate an apparent second order rate constant (kobs/inhibitor concentration or kobs/[I]) describing the time-dependent inhibition. […]

[1] = tested on: osteoclasts (osteoclastoma-derived cell suspensions); assay: Human osteoclast resorption assay (pit assay on dentine slices); format: cell-based; conditions: 48 hours, pit volumes
Method: Human Osteoclast Resorption Assay
Aliquots of osteoclastoma-derived cell suspensions were removed from liquid nitrogen storage, warmed rapidly at 37° C. and washed ×1 in RPMI-1640 medium by centrifugation (1000 rpm, 5 min at 4° C.). The medium was aspirated and replaced with murine anti-HLA-DR antibody, diluted 1:3 in RPMI-1640 medium, and incubated for 30 minutes on ice. The cell suspension was mixed frequently.
The cells were washed ×2 with cold RPMI-1640 by centrifugation (1000 rpm, 5 min at 4° C.) and then transferred to a sterile 15 mL centrifuge tube. The number of mononuclear cells were enumerated in an improved Neubauer counting chamber.
Sufficient magnetic beads (5/mononuclear cell), coated with goat anti-mouse IgG, were removed from their stock bottle and placed into 5 mL of fresh medium (this washes away the toxic azide preservative). The medium was removed by immobilizing the beads on a magnet and is replaced with fresh medium.
The beads were mixed with the cells and the suspension was incubated for 30 minutes on ice. The suspension was mixed frequently. […]
The TRAP positive osteoclasts were enumerated by bright-field microscopy and were then removed from the surface of the dentine by sonication. Pit volumes were determined using the Nikon/Lasertec ILM21W confocal microscope.

Ki (cathepsin K): 0.41 nM
IC50 [1]: 300 nM
Compound: CC(C)C[C@H](NC(=O)c1ccc2ccccc2n1)C(=O)NC1CCCN(S(=O)(=O)c2cccc[n+]2[O-])CC1=O (stereo partly drawn) [Example 1, Quinoline-2-carboxylic acid {(S)-3-methyl-1-[3-oxo-1-(1-oxy-pyridine-2-sulfonyl)-azepan-4-ylcarbamoyl]-butyl}amide]

Source: US6534498B1, “Protease inhibitors” (SmithKline Beecham Corporation, priority 1999, dated 2003)
